Results: ChEMBL document CHEMBL5653615 (J Biol Chem, 2013)

Legend:
[1] = biological target: Myosin light chain kinase, smooth muscle (Homo sapiens) (UniProt Q15746); assay: Inhibition of human MYLK at 500 nM by HotSpot assay relative to control
[2] = biological target: T1, Serine/threonine-protein kinase 4 (Homo sapiens) (UniProt Q13043); assay: Inhibition of human STK4 at 500 nM by HotSpot assay relative to control
T1 sequence (whole entry): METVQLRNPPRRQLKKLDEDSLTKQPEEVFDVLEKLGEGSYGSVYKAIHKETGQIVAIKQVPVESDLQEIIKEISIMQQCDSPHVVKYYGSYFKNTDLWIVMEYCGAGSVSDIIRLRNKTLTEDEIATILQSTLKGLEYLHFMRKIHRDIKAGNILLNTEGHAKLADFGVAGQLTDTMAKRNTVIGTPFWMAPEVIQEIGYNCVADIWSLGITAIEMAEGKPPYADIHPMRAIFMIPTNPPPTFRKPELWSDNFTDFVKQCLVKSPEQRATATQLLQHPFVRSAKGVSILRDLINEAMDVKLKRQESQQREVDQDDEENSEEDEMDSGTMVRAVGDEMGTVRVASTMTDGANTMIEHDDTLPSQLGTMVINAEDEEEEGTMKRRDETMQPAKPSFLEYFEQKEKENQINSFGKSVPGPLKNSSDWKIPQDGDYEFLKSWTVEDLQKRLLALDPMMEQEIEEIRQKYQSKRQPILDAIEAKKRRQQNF

[3] = biological target: Dual specificity protein kinase CLK3 (Homo sapiens) (UniProt P49761); assay: Inhibition of human CLK3 at 500 nM by HotSpot assay relative to control
[4] = biological target: Calcium/calmodulin-dependent protein kinase type 1 (Homo sapiens) (UniProt Q14012); assay: Inhibition of human CAMK1a at 500 nM by HotSpot assay relative to control
[5] = biological target: T2, Mitogen-activated protein kinase kinase kinase 3 (Homo sapiens) (UniProt Q99759); assay: Inhibition of human MEKK3 at 500 nM by HotSpot assay relative to control
T2 sequence (whole entry): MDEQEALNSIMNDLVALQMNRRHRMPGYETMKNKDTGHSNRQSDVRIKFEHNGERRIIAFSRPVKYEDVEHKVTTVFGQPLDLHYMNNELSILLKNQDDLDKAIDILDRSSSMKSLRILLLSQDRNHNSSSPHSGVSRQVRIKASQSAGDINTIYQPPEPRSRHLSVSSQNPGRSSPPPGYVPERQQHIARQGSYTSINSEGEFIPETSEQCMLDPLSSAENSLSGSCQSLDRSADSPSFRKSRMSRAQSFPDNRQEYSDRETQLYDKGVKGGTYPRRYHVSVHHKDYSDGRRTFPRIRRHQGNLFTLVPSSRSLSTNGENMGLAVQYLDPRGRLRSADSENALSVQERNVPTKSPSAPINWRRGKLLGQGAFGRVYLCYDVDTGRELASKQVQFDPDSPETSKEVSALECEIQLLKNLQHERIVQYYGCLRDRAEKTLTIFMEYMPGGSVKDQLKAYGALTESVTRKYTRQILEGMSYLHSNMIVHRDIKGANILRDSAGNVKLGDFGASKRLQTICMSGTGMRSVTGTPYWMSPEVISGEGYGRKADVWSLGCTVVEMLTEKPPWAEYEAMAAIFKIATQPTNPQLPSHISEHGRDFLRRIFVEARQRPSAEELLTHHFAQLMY

[6] = biological target: T3, Serine/threonine-protein kinase Sgk3 (Homo sapiens) (UniProt Q96BR1); assay: Inhibition of human SGKL at 500 nM by HotSpot assay relative to control
T3 sequence (whole entry): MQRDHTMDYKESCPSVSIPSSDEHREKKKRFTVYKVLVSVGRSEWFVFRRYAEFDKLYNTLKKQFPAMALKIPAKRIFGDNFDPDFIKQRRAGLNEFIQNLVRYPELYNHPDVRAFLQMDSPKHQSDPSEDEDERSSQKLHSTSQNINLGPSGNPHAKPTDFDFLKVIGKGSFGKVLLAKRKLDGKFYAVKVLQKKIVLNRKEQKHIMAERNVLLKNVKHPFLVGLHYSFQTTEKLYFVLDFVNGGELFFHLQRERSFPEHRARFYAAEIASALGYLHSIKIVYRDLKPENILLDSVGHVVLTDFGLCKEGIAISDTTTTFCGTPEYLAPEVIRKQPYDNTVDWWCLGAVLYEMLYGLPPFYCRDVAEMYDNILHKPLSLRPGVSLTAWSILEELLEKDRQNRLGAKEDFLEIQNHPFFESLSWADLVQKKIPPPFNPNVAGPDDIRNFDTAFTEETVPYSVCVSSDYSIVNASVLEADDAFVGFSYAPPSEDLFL

[7] = biological target: Ribosomal protein S6 kinase alpha-6 (Homo sapiens) (UniProt Q9UK32); assay: Inhibition of human RSK4 at 500 nM by HotSpot assay relative to control
[8] = biological target: Maternal embryonic leucine zipper kinase (Homo sapiens) (UniProt Q14680); assay: Inhibition of human MELK at 500 nM by HotSpot assay relative to control
[9] = biological target: G protein-coupled receptor kinase 4 (Homo sapiens) (UniProt P32298); assay: Inhibition of human GRK4 at 500 nM by HotSpot assay relative to control
[10] = biological target: Dual specificity tyrosine-phosphorylation-regulated kinase 1B (Homo sapiens) (UniProt Q9Y463); assay: Inhibition of human DYRK1B at 500 nM by HotSpot assay relative to control
[11] = biological target: Serine/threonine-protein kinase 26 (Homo sapiens) (UniProt Q9P289); assay: Inhibition of human MST4 at 500 nM by HotSpot assay relative to control
[12] = biological target: Tyrosine-protein kinase receptor UFO (Homo sapiens) (UniProt P30530); assay: Inhibition of human AXL at 500 nM by HotSpot assay relative to control
[13] = biological target: T4, Dual specificity mitogen-activated protein kinase kinase 6 (Homo sapiens) (UniProt P52564); assay: Inhibition of human MKK6 at 500 nM by HotSpot assay relative to control
T4 sequence (whole entry): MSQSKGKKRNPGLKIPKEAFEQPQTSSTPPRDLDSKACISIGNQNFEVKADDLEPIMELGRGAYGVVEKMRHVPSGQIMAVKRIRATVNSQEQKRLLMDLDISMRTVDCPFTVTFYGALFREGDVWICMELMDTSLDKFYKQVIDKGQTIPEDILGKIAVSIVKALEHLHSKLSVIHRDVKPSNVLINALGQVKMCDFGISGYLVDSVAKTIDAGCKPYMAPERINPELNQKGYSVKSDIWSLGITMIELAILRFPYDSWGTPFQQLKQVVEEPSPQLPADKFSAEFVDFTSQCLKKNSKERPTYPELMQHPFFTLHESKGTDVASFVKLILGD

Tyrosine-protein kinase receptor UFO (Homo sapiens), sequence (P30530 whole entry): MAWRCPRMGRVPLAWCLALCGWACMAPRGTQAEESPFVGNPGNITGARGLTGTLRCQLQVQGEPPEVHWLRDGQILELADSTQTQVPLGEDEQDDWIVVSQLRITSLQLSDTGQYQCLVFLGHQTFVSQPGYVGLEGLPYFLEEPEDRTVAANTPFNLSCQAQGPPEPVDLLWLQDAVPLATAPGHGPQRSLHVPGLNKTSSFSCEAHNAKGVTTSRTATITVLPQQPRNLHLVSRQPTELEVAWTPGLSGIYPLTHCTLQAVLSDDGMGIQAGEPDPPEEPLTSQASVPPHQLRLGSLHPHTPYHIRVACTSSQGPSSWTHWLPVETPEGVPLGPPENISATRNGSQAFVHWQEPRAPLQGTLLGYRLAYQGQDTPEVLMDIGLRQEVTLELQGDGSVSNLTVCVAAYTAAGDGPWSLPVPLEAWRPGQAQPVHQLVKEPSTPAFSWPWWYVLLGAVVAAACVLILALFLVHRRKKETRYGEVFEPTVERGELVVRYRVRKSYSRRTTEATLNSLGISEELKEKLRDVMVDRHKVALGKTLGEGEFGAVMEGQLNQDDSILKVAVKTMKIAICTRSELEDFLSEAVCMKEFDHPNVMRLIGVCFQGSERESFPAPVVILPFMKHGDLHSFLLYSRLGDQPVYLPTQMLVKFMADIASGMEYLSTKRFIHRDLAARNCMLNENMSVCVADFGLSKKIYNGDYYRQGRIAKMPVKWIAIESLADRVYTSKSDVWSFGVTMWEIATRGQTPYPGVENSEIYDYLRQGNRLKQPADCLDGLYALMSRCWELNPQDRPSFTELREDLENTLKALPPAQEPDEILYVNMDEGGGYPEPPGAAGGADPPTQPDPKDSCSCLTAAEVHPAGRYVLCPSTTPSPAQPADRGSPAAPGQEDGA
G protein-coupled receptor kinase 4 (Homo sapiens), sequence (P32298 whole entry, looked up): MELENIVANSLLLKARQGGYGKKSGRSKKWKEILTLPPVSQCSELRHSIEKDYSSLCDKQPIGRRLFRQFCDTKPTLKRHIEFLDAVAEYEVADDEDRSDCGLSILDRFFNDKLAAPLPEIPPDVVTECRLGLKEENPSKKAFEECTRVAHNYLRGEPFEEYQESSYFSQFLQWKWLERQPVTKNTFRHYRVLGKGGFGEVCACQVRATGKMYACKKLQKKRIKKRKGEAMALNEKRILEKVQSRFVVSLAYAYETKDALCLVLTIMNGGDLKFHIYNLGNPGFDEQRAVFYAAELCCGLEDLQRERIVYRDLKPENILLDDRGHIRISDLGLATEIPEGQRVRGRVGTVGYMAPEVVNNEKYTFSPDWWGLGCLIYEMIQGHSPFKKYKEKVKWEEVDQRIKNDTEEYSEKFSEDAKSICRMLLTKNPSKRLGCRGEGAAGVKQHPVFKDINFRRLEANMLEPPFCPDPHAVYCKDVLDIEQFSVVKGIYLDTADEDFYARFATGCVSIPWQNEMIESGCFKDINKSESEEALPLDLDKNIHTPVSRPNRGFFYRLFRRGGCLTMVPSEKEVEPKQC
Dual specificity tyrosine-phosphorylation-regulated kinase 1B (Homo sapiens), sequence (Q9Y463 whole entry, looked up): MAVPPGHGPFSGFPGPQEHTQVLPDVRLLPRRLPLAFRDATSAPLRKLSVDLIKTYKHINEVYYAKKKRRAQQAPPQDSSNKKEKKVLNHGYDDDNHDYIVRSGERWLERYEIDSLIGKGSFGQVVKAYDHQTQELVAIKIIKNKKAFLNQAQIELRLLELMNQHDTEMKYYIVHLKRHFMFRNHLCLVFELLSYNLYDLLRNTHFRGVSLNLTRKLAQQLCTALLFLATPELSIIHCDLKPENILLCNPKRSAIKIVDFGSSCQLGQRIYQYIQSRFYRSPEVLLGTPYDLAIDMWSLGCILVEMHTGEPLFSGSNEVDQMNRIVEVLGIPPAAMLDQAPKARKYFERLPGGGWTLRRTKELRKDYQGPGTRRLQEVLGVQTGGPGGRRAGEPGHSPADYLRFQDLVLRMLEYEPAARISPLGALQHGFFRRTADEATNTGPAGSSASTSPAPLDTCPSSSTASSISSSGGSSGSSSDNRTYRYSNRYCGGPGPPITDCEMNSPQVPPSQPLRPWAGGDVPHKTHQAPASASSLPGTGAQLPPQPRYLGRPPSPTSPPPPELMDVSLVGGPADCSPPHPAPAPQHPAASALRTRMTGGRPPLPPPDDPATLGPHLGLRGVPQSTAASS
Myosin light chain kinase, smooth muscle (Homo sapiens), sequence (Q15746 whole entry): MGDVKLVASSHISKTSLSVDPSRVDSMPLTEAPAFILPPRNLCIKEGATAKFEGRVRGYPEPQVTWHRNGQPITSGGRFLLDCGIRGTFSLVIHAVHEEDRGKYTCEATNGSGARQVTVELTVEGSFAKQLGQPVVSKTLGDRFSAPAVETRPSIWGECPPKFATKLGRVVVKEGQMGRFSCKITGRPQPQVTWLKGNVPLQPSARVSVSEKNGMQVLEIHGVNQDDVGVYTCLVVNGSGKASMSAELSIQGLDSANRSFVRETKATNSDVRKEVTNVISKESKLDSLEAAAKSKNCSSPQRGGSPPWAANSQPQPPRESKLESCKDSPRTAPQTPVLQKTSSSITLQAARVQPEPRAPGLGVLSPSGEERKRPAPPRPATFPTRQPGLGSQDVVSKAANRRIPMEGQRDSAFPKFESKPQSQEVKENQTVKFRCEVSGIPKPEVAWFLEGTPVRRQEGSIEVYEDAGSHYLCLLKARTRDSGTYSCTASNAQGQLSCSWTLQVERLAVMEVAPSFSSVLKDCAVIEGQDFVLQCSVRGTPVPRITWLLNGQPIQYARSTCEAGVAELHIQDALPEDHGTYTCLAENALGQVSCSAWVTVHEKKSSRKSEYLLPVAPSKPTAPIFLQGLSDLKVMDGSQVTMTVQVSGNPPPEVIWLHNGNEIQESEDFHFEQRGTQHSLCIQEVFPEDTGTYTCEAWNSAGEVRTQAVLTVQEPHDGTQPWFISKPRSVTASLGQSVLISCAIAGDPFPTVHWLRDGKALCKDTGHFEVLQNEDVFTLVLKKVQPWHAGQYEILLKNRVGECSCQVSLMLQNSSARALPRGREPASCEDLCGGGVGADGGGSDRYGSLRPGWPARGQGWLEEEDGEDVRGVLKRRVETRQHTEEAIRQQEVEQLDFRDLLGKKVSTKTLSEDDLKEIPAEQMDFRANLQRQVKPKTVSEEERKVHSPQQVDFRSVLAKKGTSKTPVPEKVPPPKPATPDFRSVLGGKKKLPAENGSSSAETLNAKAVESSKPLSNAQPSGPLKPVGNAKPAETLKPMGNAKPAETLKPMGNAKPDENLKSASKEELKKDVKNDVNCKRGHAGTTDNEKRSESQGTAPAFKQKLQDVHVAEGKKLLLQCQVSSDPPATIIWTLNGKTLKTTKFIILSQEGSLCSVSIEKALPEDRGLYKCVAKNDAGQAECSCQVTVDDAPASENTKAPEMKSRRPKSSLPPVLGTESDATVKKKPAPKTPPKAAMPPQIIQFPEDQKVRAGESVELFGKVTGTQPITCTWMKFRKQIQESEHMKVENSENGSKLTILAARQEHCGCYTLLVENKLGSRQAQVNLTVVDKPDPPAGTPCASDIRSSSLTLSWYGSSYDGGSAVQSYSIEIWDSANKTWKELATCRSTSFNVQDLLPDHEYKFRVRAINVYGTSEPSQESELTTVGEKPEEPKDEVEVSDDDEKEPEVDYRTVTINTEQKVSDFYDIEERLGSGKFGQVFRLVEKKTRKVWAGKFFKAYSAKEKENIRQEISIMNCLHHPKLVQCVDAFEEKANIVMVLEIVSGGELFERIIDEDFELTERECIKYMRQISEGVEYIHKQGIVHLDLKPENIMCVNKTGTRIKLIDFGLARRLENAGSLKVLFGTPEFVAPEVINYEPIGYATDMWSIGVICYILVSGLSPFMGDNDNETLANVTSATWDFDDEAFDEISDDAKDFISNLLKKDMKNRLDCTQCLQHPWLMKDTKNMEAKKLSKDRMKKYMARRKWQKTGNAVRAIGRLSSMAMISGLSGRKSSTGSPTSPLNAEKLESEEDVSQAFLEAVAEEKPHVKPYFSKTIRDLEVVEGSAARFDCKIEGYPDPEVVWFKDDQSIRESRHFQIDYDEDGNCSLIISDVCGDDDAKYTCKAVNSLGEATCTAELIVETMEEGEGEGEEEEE
Serine/threonine-protein kinase 26 (Homo sapiens), sequence (Q9P289 2-416 limits assumed): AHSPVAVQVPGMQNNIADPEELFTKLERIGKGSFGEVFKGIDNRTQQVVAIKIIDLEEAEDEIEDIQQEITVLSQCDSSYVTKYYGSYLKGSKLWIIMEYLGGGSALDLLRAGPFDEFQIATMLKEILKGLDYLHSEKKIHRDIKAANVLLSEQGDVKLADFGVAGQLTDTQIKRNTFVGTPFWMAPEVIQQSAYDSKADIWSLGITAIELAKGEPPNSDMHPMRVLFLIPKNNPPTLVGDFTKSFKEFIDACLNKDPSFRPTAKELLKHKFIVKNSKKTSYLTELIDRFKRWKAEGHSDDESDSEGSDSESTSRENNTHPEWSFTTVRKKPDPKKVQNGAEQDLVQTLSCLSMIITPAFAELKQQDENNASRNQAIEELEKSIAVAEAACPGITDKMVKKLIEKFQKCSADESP
Dual specificity protein kinase CLK3 (Homo sapiens), sequence (P49761 whole entry, looked up): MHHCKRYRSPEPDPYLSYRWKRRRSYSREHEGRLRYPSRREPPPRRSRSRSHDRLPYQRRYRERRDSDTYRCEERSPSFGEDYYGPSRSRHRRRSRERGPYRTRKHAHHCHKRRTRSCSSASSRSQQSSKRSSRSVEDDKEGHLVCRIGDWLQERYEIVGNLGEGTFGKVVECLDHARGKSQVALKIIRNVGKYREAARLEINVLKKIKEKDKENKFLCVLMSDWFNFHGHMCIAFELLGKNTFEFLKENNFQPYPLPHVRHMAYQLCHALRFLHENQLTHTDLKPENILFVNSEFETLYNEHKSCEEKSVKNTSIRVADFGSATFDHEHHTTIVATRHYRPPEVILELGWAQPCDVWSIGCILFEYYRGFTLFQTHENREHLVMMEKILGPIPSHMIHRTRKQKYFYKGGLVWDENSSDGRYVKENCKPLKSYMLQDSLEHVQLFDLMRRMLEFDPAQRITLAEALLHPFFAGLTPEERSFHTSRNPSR

Question: For Nc1n[nH]c2nnc(-c3c(-c4ccccc4)nn4ccccc34)cc12, which inhibition [1] is on record?
Answer: 1.66%

Question: What about the inhibition [2] of the same compound?
Answer: 0.86%

Question: What about the inhibition [3] of the same compound?
Answer: 5.1%

Question: And the inhibition [4]?
Answer: -2.35%

Question: What about the inhibition [5] of the same compound?
Answer: -9.53%

Question: What about the inhibition [6] of the same compound?
Answer: 9.81%

Question: What about the inhibition [7] of the same compound?
Answer: 4.48%

Question: And the inhibition [8]?
Answer: -1.59%

Question: And the inhibition [9]?
Answer: -2.71%

Question: What about the inhibition [10] of the same compound?
Answer: -0.86%

Question: What about the inhibition [11] of the same compound?
Answer: 24.1%

Question: What about the inhibition [12] of the same compound?
Answer: 0.88%

Question: And the inhibition [13]?
Answer: 9.06%

Question: What does the source list for Oc1n[nH]c2nnc(-c3c(-c4ccccc4)nn4ccccc34)cc12?
Answer: inhibition [1]: 1.22%; inhibition [2]: -0.48%; inhibition [3]: 1.04%; inhibition [4]: 0.02%; inhibition [5]: -4.26%; inhibition [6]: 0.31%; inhibition [7]: -2.71%; inhibition [8]: -1.3%; inhibition [9]: -1.17%; inhibition [10]: -1.78%; inhibition [11]: 3.66%; inhibition [12]: -1.44%; inhibition [13]: 8.78%
